{"source": "patent US9150734B2", "about": "“Zwitterionic lignin derivatives for marine antifouling coatings” (Empire Technology Development LLC, priority 2012, dated 2015)", "origin": "cited, not measured here", "tested_on": "diatom species", "details": "variety of diatom species, various concentrations; variation between species"}
{"substance": "benzalkonium chloride", "values": [{"measurement": "concentration at which all diatoms were killed", "value": "less than 0.001%"}]}
